We go through 8 compounds from patent US8178658B2 (Dow AgroSciences, LLC, priority 2008, dated 2012).

Experiment [1] relates to beet armyworm (BAW; Spodoptera exigua: Lepidoptera). The experiment is described as follows: 96-well microtiter plate-based high throughput (HTS) diet bioassay on beet armyworm (BAW HTS). The conditions noted are these: BAW eggs, 12 μg test compound per well, mortality at 6 d post-treatment, mortality class. Format: in vivo. The method, boiled down:
(§1)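 Two diet formats. HTS: eggs on 96-well diet overlaid with 12 μg compound, held 6 d at 29° C in dark, mean mortality of six replicates. BAW 50: three to five second-instar larvae per well on diet dosed at 50 μg/cm^2, held six days at 25° C under 14:10 light-dark, mortality averaged across eight wells.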

The test system is the same in experiment [2]. The experiment is described as follows: 128-well diet tray assay on beet armyworm (BAW 50). Format: in vivo. The conditions noted are these: 128-well diet tray assay; 50 μg/cm^2 of test compound on diet; second instar BAW larvae; mortality class. In short, it runs like this: as §1
[3] abbreviates: 96-well microtiter plate HTS diet assay.

On to `COC1C(C)OC(ON=Cc2ccc(-c3ncn(-c4ccc(C(C)(C)C)cc4)n3)cc2)C(OC)C1OC` (stereo not drawn) [Compound 86], for which the “BAW HTS” value in experiment [1] (96-well HTS diet bioassay) was “B (either (1) the compound was tested and less than 50 percent mortality was observed or (2) the compound was not tested)”; in experiment [1] (setting [3]), “B (either (1) the compound was tested and less than 50 percent mortality was observed or (2) the compound was not tested)”. Moreover, the “BAW 50 ug/cm2” value in experiment [2] is “A (the compound was tested and at least 50 percent mortality was observed)”.
As to `COC1C(C)OC(ON=Cc2ccc(-c3ncn(-c4ccc(SC(F)(F)F)cc4)n3)cc2)C(OC)C1OC` (stereo not drawn) [Compound 87], the “BAW HTS” value is “B (either (1) the compound was tested and less than 50 percent mortality was observed or (2) the compound was not tested)” in experiment [1] (96-well HTS diet bioassay); “B (either (1) the compound was tested and less than 50 percent mortality was observed or (2) the compound was not tested)” in experiment [1] (setting [3]). Moreover, the “BAW 50 ug/cm2” value in experiment [2] is “A (the compound was tested and at least 50 percent mortality was observed)”.
In the case of `COC1C(C)OC(ON=Cc2ccc(-c3ncn(-c4ccc(OC(F)(F)C(F)F)cc4)n3)cc2)C(OC)C1OC` (stereo not drawn) [Compound 88], the “BAW HTS” value in experiment [1] (96-well HTS diet bioassay) was “B (either (1) the compound was tested and less than 50 percent mortality was observed or (2) the compound was not tested)”; in experiment [1] (setting [3]) it was “B (either (1) the compound was tested and less than 50 percent mortality was observed or (2) the compound was not tested)”. Moreover, the “BAW 50 ug/cm2” value in experiment [2] is “A (the compound was tested and at least 50 percent mortality was observed)”.
`COC1C(C)OC(ON=Cc2ccc(-c3ncn(-c4ccc(OC(F)(F)C(F)(F)F)cc4)n3)cc2)C(OC)C1OC` (stereo not drawn) [Compound 89]: the “BAW HTS” value in experiment [1] (96-well HTS diet bioassay) is “B (either (1) the compound was tested and less than 50 percent mortality was observed or (2) the compound was not tested)”; in experiment [1] (setting [3]), “B (either (1) the compound was tested and less than 50 percent mortality was observed or (2) the compound was not tested)”. The “BAW 50 ug/cm2” value in experiment [2] was “A (the compound was tested and at least 50 percent mortality was observed)”.
As to `COC1C(C)OC(ON=Cc2ccc(-c3ncn(-c4ccc(SC)cc4)n3)cc2)C(OC)C1OC` (stereo not drawn) [Compound 90], the “BAW HTS” value in experiment [1] (96-well HTS diet bioassay) is “B (either (1) the compound was tested and less than 50 percent mortality was observed or (2) the compound was not tested)”; in experiment [1] (setting [3]), “B (either (1) the compound was tested and less than 50 percent mortality was observed or (2) the compound was not tested)”. For the same compound, the “BAW 50 ug/cm2” value in experiment [2] was “A (the compound was tested and at least 50 percent mortality was observed)”.
Turning to `COC1C(C)OC(ON=Cc2ccc(-c3ncn(-c4cccc(OC(F)(F)F)c4)n3)cc2)C(OC)C1OC` (stereo not drawn) [Compound 91], the “BAW HTS” value was “B (either (1) the compound was tested and less than 50 percent mortality was observed or (2) the compound was not tested)” in experiment [1] (96-well HTS diet bioassay); “B (either (1) the compound was tested and less than 50 percent mortality was observed or (2) the compound was not tested)” in experiment [1] (setting [3]). For the same compound, in experiment [2], the “BAW 50 ug/cm2” value was “A (the compound was tested and at least 50 percent mortality was observed)”.
For the compound `CCOC1C(C)OC(ON=Cc2ccc(-c3ncn(-c4ccc(OC(F)(F)C(F)(F)F)cc4)n3)cc2)C(OCC)C1OCC` (stereo not drawn) [Compound 92], the “BAW HTS” value in experiment [1] (96-well HTS diet bioassay) was “B (either (1) the compound was tested and less than 50 percent mortality was observed or (2) the compound was not tested)”; in experiment [1] (setting [3]), “B (either (1) the compound was tested and less than 50 percent mortality was observed or (2) the compound was not tested)”. Moreover, the “BAW 50 ug/cm2” value in experiment [2] is “A (the compound was tested and at least 50 percent mortality was observed)”.
As to `CCOC1C(OC)C(C)OC(ON=Cc2ccc(-c3ncn(-c4ccc(OC(F)(F)C(F)(F)F)cc4)n3)cc2)C1OC` (stereo not drawn) [Compound 93], the “BAW HTS” value in experiment [1] (96-well HTS diet bioassay) was “A (the compound was tested and at least 50 percent mortality was observed)”; in experiment [1] (setting [3]), “A (the compound was tested and at least 50 percent mortality was observed)”. Also, in experiment [2], the “BAW 50 ug/cm2” value is “A (the compound was tested and at least 50 percent mortality was observed)”.
